For series [1], the system named is A549. Put plainly: Cell cycle arrest in human A549 cells by accumulation at S phase after 72 hrs relative to control by flow cytometry. More on the design: concentration or dose not given beside the values. It is filed as functional. Background: A flow cytometer gives signals particle by particle.
Series [2] has as its system A549. Put plainly: Cell cycle arrest in human A549 cells by accumulation at G2 phase after 72 hrs relative to control by flow cytometry. Format: functional. More on the design: concentration or dose not given beside the values.
For series [3], the system named is A549. Put plainly: Cell cycle arrest in human A549 cells by accumulation at G0/G1 phase after 72 hrs relative to control by flow cytometry. It is filed as functional. More on the design: concentration or dose not given beside the values.
In series [4] the test system is A549. Put plainly: Cytotoxicity against human A549 cells at 1 mM after 72 hrs by MTT test. It is filed as cell-based. Particulars: a549, 72 h, 1000 µM.
The subject of series [5] is A549. Put plainly: Cytotoxicity against human A549 cells after 72 hrs by MTT test. Format: cell-based. Conditions: A549, 72 h. In general terms: Tetrazolium dyes change colour on reduction, which living cells bring about.
Series [6] relates to A549. As to the kind of experiment: Cell death of human A549 cells assessed as increase in number of apoptotic cells by annexin V and propidium iodide staining by flow cytometry. It is filed as functional, cell-based.
The test system of series [7] is A549. As to the kind of experiment: Cytotoxicity against human A549 cells upto 1 mM in presence of 10% FBS after 72 hrs by MTT test. It is filed as cell-based. Conditions: a549, 72 h.
The test system of series [8] is A549. As to the kind of experiment: Cytotoxicity against human A549 cells upto 1 mM in presence of <=5% FBS after 72 hrs by MTT test. Format: cell-based. Conditions: a549, 72 h.
Series [9] has as its system A549. Put plainly: Cytotoxicity against human A549 cells in presence of 10% FBS after 72 hrs by MTT test. Conditions: a549, 72 h. Format: cell-based.

Structures are written as SMILES. Calls of active or inactive are those of the source. No cut-off for these calls is given here.

This passage reports Activity and IC50 results from ChEMBL document CHEMBL1144544, “Solid-phase synthesis of a combinatorial library of dihydroceramide analogues and its activity in human alveolar epithelial cells” (Bioorg Med Chem, 2007).

With `CCCCCCCCCCCCC(O)[C@H](CO)NC(=O)c1ccc2ccccc2c1` (some centres not stated), the Activity is listed as 7.4% in series [1], 2.2% in series [2] and 90.4% in series [3].

For the compound `CC(O)[C@H](CO)NC(=O)c1ccc2ccccc2c1` (some centres not stated), the Activity entry in series [4] is reported as “Non-toxic”.

As to `CCCCCCCCCCCCC(O)[C@H](CO)NC(=O)c1ccc(CCCCCCC)cc1` (some centres not stated), the Activity in series [1] is recorded as 7.4%; in series [2] it was 4.4%; in series [3] it was 88.2%.

`COc1ccc(CC(=O)N[C@@H](CO)C(C)O)cc1OC` (some centres not stated): the IC50 (in general, the concentration that inhibits the measured activity by half) in series [5] is 410 µM.

For the compound `CC(O)[C@H](CO)NC(=O)c1ccccc1` (some centres not stated), the Activity entry in series [4] is recorded as “Non-toxic”.

With `CCCCCCCCCCCCC(O)[C@H](CO)NC(=O)Cc1ccc(OC)c(OC)c1` (some centres not stated), the Activity amounted to 5.4% in [1], 7% in series [2] and 86.5% in series [3]. The compound also returned an IC50 in series [5] of 20 µM.

On to `O=C(N[C@@H](CO)C(O)c1ccccc1)c1ccccc1` (some centres not stated), for which the IC50 in series [5] is 689 µM.

`O=C(N[C@@H](CO)C(O)c1ccccc1)c1ccc2ccccc2c1` (some centres not stated) returned an IC50 in series [5] of 580 µM.

Regarding `CC(C)CC(=O)N[C@@H](CO)C(O)c1ccccc1` (some centres not stated), the Activity result in series [4] is on record as “Non-toxic”.

As to `CCCCCCCc1ccc(C(=O)N[C@@H](CO)C(O)c2ccccc2)cc1` (some centres not stated), in series [5], the IC50 was 20 µM.

For `CCCCCCCCC(O)[C@H](CO)NC(=O)Cc1ccc(OC)c(OC)c1` (some centres not stated), the figures for the Activity in series [1], in [2] and in [3] were 10.5%, 5.5% and 84%, respectively.

`CC(O)[C@H](CO)NC(=O)CCC1CCCC1` (some centres not stated): in [4], the Activity result is reported as “Non-toxic”.

As for `CCCCCCCCC(O)[C@H](CO)NC(=O)CCC1CCCC1` (some centres not stated), the Activity was 3.4% in series [1], 2.2% in series [2] and 94.4% in [3].

`CCCCCCCCCCCCCCC[C@H](O)[C@H](CO)NC(=O)c1ccc(CCCCCCC)cc1`: the Activity was determined as 11.5% in series [1], 5.4% in series [2] and 83.1% in series [3]. This compound had an IC50 in series [5] of 108 µM. Besides, in series [6], the outcome was Active.

Regarding `CCCCCCCCCCCCCCC[C@@H](O)[C@H](CO)NC(=O)CCCCC`, the Activity result in [7] was “Not Active”.

As for `CCCCCCCCCCCCCCC[C@@H](O)[C@H](CO)NC(=O)c1ccc(CCCCCCC)cc1`, the outcome in series [6] was inactive.

Regarding `CC(C)CC(=O)N[C@@H](CO)C(C)O` (some centres not stated), the Activity result in series [4] was “Non-toxic”.

`O=C(CCC1CCCC1)N[C@@H](CO)C(O)c1ccccc1` (some centres not stated) yielded an IC50 in series [5] of 597 µM.

Take `CCCCCCCCC(O)[C@H](CO)NC(=O)CC(C)C` (some centres not stated): the Activity is 10.5% in series [1], 5% in series [2] and 84.5% in series [3].

In series [5], `CCCCCCCCCCCCC/C=C/[C@@H](O)[C@H](CO)NC(=O)CCCCC` showed an IC50 of 35 µM. For the same compound, the figures for the Activity entry in series [8] and in [9] were “Non-toxic” and “Dose-dependent effect”, respectively.

`CCCCCCCCC(O)[C@H](CO)NC(=O)c1ccc(CCCCCCC)cc1` (some centres not stated): the Activity was 3.4% in series [1], 4% in [2] and 92.6% in series [3]. In series [5], this compound registered an IC50 of 20 µM. Further, the result in series [6] was Active.

As to `CCCCCCCCCCCCC(O)[C@H](CO)NC(=O)CC(C)C` (some centres not stated), the results for the Activity in series [1], in [2] and in series [3] were 5.2%, 4.4% and 89.8%, respectively.

Turning to `CCCCCCCCC(O)[C@H](CO)NC(=O)c1ccc2ccccc2c1` (some centres not stated), the Activity in series [1] stood at 5.4%; in series [2], 3.4%; in series [3], 91.2%.

Take `CCCCCCCCCCCCC(O)[C@H](CO)NC(=O)c1ccccc1` (some centres not stated): the Activity came out at 12.8% in [1], 4.2% in [2] and 83% in [3].

As to `CCCCCCCCC(O)[C@H](CO)NC(=O)c1ccccc1` (some centres not stated), the values for the Activity in series [1], in [2] and in series [3] were 8.4%, 2% and 89.6%, respectively.

As to `CCCCCCC(O)[C@H](CO)NC(=O)c1ccccc1` (some centres not stated), half-maximal inhibition in series [5] (IC50) was put at 290 µM.

On to `CCCCCCCc1ccc(C(=O)N[C@@H](CO)C(O)CCCCCC)cc1` (some centres not stated), for which the Activity in series [1] is listed as 8.1%; in series [2], 5.4%; in series [3], 86.5%. Besides, the IC50 in series [5] is 20 µM.

Regarding `CCCCCCC(O)[C@H](CO)NC(=O)CC(C)C` (some centres not stated), in series [5], 302 µM corresponded to half-maximal inhibition (IC50).
